Measured values from patent publication US6689773B2, “Uracil substituted phenyl sulfamoyl carboxamides” (BASF Aktiengesellschaft, priority 2000, dated 2004).

Tests used:
Format in all cases: in vivo
[1] = test system: CHEAL, Lambsquarters, Chenopodium album, L. Common; assay: Preemergence herbicidal evaluation (Example 148); settings: rating scale 0-9, two to four weeks after treatment
Outline: (§1)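 Applied: aqueous acetone solution, ~0.125–0.250 kg/ha, sprayed on soil just after seeding. Read: visual plant appearance against control, 2–4 weeks post-spray.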

[2] = test system: SETVI, Green foxtail, Setaria viridis, (L.)Beau; assay: Preemergence herbicidal evaluation (Example 148); settings: rating scale 0-9, two to four weeks after treatment
Outline: as §1

[3] = test system: ABUTH, Velvetleaf, Abutilon theophrasti, Medic.; assay: Preemergence herbicidal evaluation (Example 148); settings: rating scale 0-9, two to four weeks after treatment
Outline: as §1

[4] = test system: TRZAW, Winter wheat, Tritium Aestivum, L. (Winter); assay: Preemergence herbicidal evaluation (Example 148); settings: rating scale 0-9, two to four weeks after treatment
Outline: as §1

[5] = test system: IPOHE, Morningglory, Ivyleaf, Ipomoea hederacea, (L)Jacq.; assay: Preemergence herbicidal evaluation (Example 148); settings: rating scale 0-9, two to four weeks after treatment
Outline: as §1

[6] = test system: GLXMA, Soybean, Glycine max, (L.) Merr.; assay: Preemergence herbicidal evaluation (Example 148); settings: rating scale 0-9, two to four weeks after treatment
Outline: as §1

[7] = test system: AMBEL, Ragweed, Common, Ambrosia artemiisifolia, L.; assay: Preemergence herbicidal evaluation (Example 148); settings: rating scale 0-9, two to four weeks after treatment
Outline: as §1

[8] = test system: ECHCG, Barnyardgrass, Echinochloa crusgalli, (L.)Beau; assay: Preemergence herbicidal evaluation (Example 148); settings: rating scale 0-9, two to four weeks after treatment
Outline: as §1

[9] = test system: XANST, Cocklebur, Xanthium strumariam; assay: Preemergence herbicidal evaluation (Example 148); settings: rating scale 0-9, two to four weeks after treatment
Outline: as §1

[10] = test system: DIGSA, Crabgrass, (Hairy) L, Digitaria sanguinalis, (L)Scop; assay: Preemergence herbicidal evaluation (Example 148); settings: rating scale 0-9, two to four weeks after treatment
Outline: as §1

[11] = test system: ZEAMX, Field corn, Zea mays L.; assay: Preemergence herbicidal evaluation (Example 148); settings: rating scale 0-9, two to four weeks after treatment
Outline: as §1

[12] = test system: ALOMY, Blackgrass, Alopecurus myosuroides; assay: Preemergence herbicidal evaluation (Example 148); settings: rating scale 0-9, two to four weeks after treatment
Outline: as §1

[13] = test system: CHEAL, Lambsquarters, Chenopodium album, L. Common; assay: Postemergence herbicidal evaluation (Example 147); settings: rating scale 0-9, two to three weeks after treatment
Outline: (§2)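 ~2-wk seedlings; spray 40 psi; 0.016–0.032 kg/ha a.i. in acetone/water 80/20 + 1.0% methylated seed oil; greenhouse; rated 0–9 visually at 2–3 wk; multiple tests averaged.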

[14] = test system: SETVI, Green foxtail, Setaria viridis, (L.)Beau; assay: Postemergence herbicidal evaluation (Example 147); settings: rating scale 0-9, two to three weeks after treatment
Outline: as §2

[15] = test system: ABUTH, Velvetleaf, Abutilon theophrasti, Medic.; assay: Postemergence herbicidal evaluation (Example 147); settings: rating scale 0-9, two to three weeks after treatment
Outline: as §2

[16] = test system: TRZAW, Winter wheat, Tritium Aestivum, L. (Winter); assay: Postemergence herbicidal evaluation (Example 147); settings: rating scale 0-9, two to three weeks after treatment
Outline: as §2

[17] = test system: IPOHE, Morningglory, Ivyleaf, Ipomoea hederacea, (L)Jacq.; assay: Postemergence herbicidal evaluation (Example 147); settings: rating scale 0-9, two to three weeks after treatment
Outline: as §2

[18] = test system: GLXMA, Soybean, Glycine max, (L.) Merr.; assay: Postemergence herbicidal evaluation (Example 147); settings: rating scale 0-9, two to three weeks after treatment
Outline: as §2

[19] = test system: AMBEL, Ragweed, Common, Ambrosia artemiisifolia, L.; assay: Postemergence herbicidal evaluation (Example 147); settings: rating scale 0-9, two to three weeks after treatment
Outline: as §2

[20] = test system: ECHCG, Barnyardgrass, Echinochloa crusgalli, (L.)Beau; assay: Postemergence herbicidal evaluation (Example 147); settings: rating scale 0-9, two to three weeks after treatment
Outline: as §2

[21] = test system: XANST, Cocklebur, Xanthium strumariam; assay: Postemergence herbicidal evaluation (Example 147); settings: rating scale 0-9, two to three weeks after treatment
Outline: as §2

[22] = test system: DIGSA, Crabgrass, (Hairy) L, Digitaria sanguinalis, (L)Scop; assay: Postemergence herbicidal evaluation (Example 147); settings: rating scale 0-9, two to three weeks after treatment
Outline: as §2

[23] = test system: ZEAMX, Field corn, Zea mays L.; assay: Postemergence herbicidal evaluation (Example 147); settings: rating scale 0-9, two to three weeks after treatment
Outline: as §2

[24] = test system: ALOMY, Blackgrass, Alopecurus myosuroides; assay: Postemergence herbicidal evaluation (Example 147); settings: rating scale 0-9, two to three weeks after treatment
Outline: as §2

CC(C)N(C(C)C)S(=O)(=O)NC(=O)c1cc(-n2c(=O)cc(C(F)(F)F)n(C)c2=O)c(F)cc1Cl [Example 60]
Preemergence herbicidal rating CHEAL ([1]; rate 0.125 kg/ha): 9.0 | Preemergence herbicidal rating CHEAL ([1]; rate 0.25 kg/ha): 9.0 | Preemergence herbicidal rating SETVI ([2]; rate 0.125 kg/ha): 5.0 | Preemergence herbicidal rating SETVI ([2]; rate 0.25 kg/ha): 9.0 | Preemergence herbicidal rating ABUTH ([3]; rate 0.125 kg/ha): 9.0 | Preemergence herbicidal rating ABUTH ([3]; rate 0.25 kg/ha): 9.0 | Preemergence herbicidal rating TRZAW ([4]; rate 0.125 kg/ha): 0.0 | Preemergence herbicidal rating TRZAW ([4]; rate 0.25 kg/ha): 0.0 | Preemergence herbicidal rating IPOHE ([5]; rate 0.125 kg/ha): 7.0 | Preemergence herbicidal rating IPOHE ([5]; rate 0.25 kg/ha): 6.0 | Preemergence herbicidal rating GLXMA ([6]; rate 0.125 kg/ha): 0.0 | Preemergence herbicidal rating GLXMA ([6]; rate 0.25 kg/ha): 6.0 | Preemergence herbicidal rating AMBEL ([7]; rate 0.125 kg/ha): 9.0 | Preemergence herbicidal rating AMBEL ([7]; rate 0.25 kg/ha): 9.0 | Preemergence herbicidal rating ECHCG ([8]; rate 0.125 kg/ha): 0.0 | Preemergence herbicidal rating ECHCG ([8]; rate 0.25 kg/ha): 4.0 | Preemergence herbicidal rating XANST ([9]; rate 0.125 kg/ha): 0.0 | Preemergence herbicidal rating XANST ([9]; rate 0.25 kg/ha): 4.0 | Preemergence herbicidal rating DIGSA ([10]; rate 0.125 kg/ha): 6.0 | Preemergence herbicidal rating DIGSA ([10]; rate 0.25 kg/ha): 6.0 | Preemergence herbicidal rating ZEAMX ([11]; rate 0.125 kg/ha): 0.0 | Preemergence herbicidal rating ZEAMX ([11]; rate 0.25 kg/ha): 0.0 | Preemergence herbicidal rating ALMOY ([12]; rate 0.125 kg/ha): 0.0 | Preemergence herbicidal rating ALMOY ([12]; rate 0.25 kg/ha): 0.0 | Postemergence herbicidal rating CHEAL ([13]; rate 0.016 kg/ha): 8.0 | Postemergence herbicidal rating CHEAL ([13]; rate 0.032 kg/ha): 9.0 | Postemergence herbicidal rating SETVI ([14]; rate 0.016 kg/ha): 8.0 | Postemergence herbicidal rating SETVI ([14]; rate 0.032 kg/ha): 9.0 | Postemergence herbicidal rating ABUTH ([15]; rate 0.016 kg/ha): 9.0 | Postemergence herbicidal rating ABUTH ([15]; rate 0.032 kg/ha): 9.0 | Postemergence herbicidal rating TRZAW ([16]; rate 0.016 kg/ha): 6.0 | Postemergence herbicidal rating TRZAW ([16]; rate 0.032 kg/ha): 6.0 | Postemergence herbicidal rating IPOHE ([17]; rate 0.016 kg/ha): 9.0 | Postemergence herbicidal rating IPOHE ([17]; rate 0.032 kg/ha): 9.0 | Postemergence herbicidal rating GLXMA ([18]; rate 0.016 kg/ha): 8.5 | Postemergence herbicidal rating GLXMA ([18]; rate 0.032 kg/ha): 8.5 | Postemergence herbicidal rating AMBEL ([19]; rate 0.016 kg/ha): 9.0 | Postemergence herbicidal rating AMBEL ([19]; rate 0.032 kg/ha): 9.0 | Postemergence herbicidal rating ECHCG ([20]; rate 0.016 kg/ha): 8.0 | Postemergence herbicidal rating ECHCG ([20]; rate 0.032 kg/ha): 7.0 | Postemergence herbicidal rating XANST ([21]; rate 0.016 kg/ha): 9.0 | Postemergence herbicidal rating XANST ([21]; rate 0.032 kg/ha): 9.0 | Postemergence herbicidal rating DIGSA ([22]; rate 0.016 kg/ha): 6.0 | Postemergence herbicidal rating DIGSA ([22]; rate 0.032 kg/ha): 7.0 | Postemergence herbicidal rating ZEAMX ([23]; rate 0.016 kg/ha): 8.0 | Postemergence herbicidal rating ZEAMX ([23]; rate 0.032 kg/ha): 8.0 | Postemergence herbicidal rating ALMOY ([24]; rate 0.016 kg/ha): 3.0 | Postemergence herbicidal rating ALMOY ([24]; rate 0.032 kg/ha): 3.0
